Assay results reported in ChEMBL document CHEMBL4177618, “Design and synthesis of a novel series of (1'S,2R,4'S)-3H-4'-azaspiro[benzo[4,5]imidazo[2,1-b]oxazole-2,2'-bicyclo[2.2.2]octanes] with high affinity for the α7 neuronal nicotinic receptor” (Bioorg Med Chem Lett, 2017).

Assays:
[1] = target: T1, 5-hydroxytryptamine receptor 3A (Homo sapiens, UniProt P46098); assay: Antagonist activity at human 5-HT3A receptor expressed in HEK293 cells assessed as inhibition of 5-HT-induced calcium flux preincubated for 30 mins prior to 5-HT addition by Fluo-4 AM dye based FLIPR assay; assay type: cell-based
T1 sequence (P46098 whole entry): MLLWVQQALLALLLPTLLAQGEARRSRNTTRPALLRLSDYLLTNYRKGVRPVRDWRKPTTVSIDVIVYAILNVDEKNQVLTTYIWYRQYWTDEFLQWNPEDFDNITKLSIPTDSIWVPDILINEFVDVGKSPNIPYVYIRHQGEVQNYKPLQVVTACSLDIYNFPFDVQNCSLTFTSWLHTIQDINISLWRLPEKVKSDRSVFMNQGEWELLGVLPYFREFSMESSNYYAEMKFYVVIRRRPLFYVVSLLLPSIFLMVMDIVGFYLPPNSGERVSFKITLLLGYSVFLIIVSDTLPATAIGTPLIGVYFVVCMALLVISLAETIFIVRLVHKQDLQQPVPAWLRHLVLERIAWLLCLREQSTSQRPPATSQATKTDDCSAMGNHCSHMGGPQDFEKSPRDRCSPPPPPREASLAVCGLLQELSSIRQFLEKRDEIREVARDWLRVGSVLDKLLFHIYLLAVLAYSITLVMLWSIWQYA

[2] = target: T2, Neuronal acetylcholine receptor subunit alpha-7 (Rattus norvegicus, UniProt Q05941); assay: Agonist activity at rat alpha7 nAChR expressed in HEK293 cells co-expressing human RIC-3 assessed as increase in calcium flux measured for 2 mins by Fluo-4 AM dye based FLIPR assay; assay type: cell-based
[3] = Selectivity ratio of IC50 for human 5-HT3A receptor expressed in HEK293 cells to EC50 for rat alpha7 nAChR expressed in HEK293 cells; assay type: cell-based
[4] = target: T2, Neuronal acetylcholine receptor subunit alpha-7; assay: Displacement of [125I]alpha-bungarotoxin from rat alpha7 nAChR expressed in HEK293 cell membranes after 2 hrs by topcount scintillation counting analysis
[5] = Agonist activity at rat alpha1beta1deltaepsilon nAChR expressed in HEK293 cells assessed as increase in calcium flux measured for 2 mins by Fluo-4-AM dye based FLIPR assay; assay type: cell-based; settings: HEK293, 2 min
[6] = target: Neuronal acetylcholine receptor; alpha3/beta4 (Rattus norvegicus, UniProt P04757+P12392); assay: Agonist activity at rat alpha3beta4 nAChR expressed in HEK293 cells assessed as increase in calcium flux measured for 2 mins by Fluo-4-AM dye based FLIPR assay; assay type: cell-based
[7] = target: Neuronal acetylcholine receptor; alpha4/beta2 (Rattus norvegicus, UniProt P09483+P12390); assay: Agonist activity at rat alpha4beta2 nAChR expressed in HEK293 cells assessed as increase in calcium flux measured for 2 mins by Fluo-4-AM dye based FLIPR assay; assay type: cell-based
[8] = target: Neuronal acetylcholine receptor subunit alpha-7 (Homo sapiens, UniProt P36544); assay: Binding affinity to human alpha7 nAChR
[9] = target: T1, 5-hydroxytryptamine receptor 3A; assay: Binding affinity to 5-HT3A receptor (unknown origin)

T2 sequence (Q05941 whole entry): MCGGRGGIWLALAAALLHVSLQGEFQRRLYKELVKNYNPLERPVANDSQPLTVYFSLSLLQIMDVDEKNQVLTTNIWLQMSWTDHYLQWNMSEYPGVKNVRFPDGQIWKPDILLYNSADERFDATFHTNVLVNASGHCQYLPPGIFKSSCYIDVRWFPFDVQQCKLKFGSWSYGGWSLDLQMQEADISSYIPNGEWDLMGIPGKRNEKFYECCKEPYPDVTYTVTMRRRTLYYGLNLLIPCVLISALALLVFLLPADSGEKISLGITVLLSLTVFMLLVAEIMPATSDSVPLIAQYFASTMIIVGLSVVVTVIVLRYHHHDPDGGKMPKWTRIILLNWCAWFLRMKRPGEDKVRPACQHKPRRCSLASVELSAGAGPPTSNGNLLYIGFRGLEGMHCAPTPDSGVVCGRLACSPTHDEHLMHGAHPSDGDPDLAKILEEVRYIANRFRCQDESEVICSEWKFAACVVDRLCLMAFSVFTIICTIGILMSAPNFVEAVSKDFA
Neuronal acetylcholine receptor subunit alpha-7 (Homo sapiens, UniProt P36544), sequence (P36544 whole entry): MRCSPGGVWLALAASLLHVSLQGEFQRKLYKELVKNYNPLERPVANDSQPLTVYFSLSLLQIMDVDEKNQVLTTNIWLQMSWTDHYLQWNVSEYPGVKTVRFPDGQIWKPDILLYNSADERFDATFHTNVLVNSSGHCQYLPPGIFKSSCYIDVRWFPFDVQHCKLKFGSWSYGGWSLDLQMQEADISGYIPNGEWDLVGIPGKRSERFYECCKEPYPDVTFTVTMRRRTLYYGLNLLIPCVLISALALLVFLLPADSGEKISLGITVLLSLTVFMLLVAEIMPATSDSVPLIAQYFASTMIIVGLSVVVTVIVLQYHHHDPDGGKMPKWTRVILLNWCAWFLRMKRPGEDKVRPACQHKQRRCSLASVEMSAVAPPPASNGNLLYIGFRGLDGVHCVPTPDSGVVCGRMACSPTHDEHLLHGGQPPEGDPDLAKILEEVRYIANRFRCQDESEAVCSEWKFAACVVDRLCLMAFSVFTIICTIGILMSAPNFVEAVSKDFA
Neuronal acetylcholine receptor; alpha3/beta4, sequence (P04757 whole entry): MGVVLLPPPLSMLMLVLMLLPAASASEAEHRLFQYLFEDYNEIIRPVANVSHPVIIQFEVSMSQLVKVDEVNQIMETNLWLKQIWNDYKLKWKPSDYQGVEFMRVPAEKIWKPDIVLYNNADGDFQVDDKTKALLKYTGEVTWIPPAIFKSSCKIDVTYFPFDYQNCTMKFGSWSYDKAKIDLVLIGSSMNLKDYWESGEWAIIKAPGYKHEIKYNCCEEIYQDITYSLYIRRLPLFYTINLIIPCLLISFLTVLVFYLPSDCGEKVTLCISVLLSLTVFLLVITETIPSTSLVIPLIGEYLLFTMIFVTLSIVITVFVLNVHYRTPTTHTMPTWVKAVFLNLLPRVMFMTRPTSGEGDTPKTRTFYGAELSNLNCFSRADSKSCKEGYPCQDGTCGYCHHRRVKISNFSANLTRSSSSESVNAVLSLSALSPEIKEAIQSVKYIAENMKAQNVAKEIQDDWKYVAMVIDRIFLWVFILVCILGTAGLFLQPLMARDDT
Neuronal acetylcholine receptor; alpha3/beta4, sequence (P12392 whole entry): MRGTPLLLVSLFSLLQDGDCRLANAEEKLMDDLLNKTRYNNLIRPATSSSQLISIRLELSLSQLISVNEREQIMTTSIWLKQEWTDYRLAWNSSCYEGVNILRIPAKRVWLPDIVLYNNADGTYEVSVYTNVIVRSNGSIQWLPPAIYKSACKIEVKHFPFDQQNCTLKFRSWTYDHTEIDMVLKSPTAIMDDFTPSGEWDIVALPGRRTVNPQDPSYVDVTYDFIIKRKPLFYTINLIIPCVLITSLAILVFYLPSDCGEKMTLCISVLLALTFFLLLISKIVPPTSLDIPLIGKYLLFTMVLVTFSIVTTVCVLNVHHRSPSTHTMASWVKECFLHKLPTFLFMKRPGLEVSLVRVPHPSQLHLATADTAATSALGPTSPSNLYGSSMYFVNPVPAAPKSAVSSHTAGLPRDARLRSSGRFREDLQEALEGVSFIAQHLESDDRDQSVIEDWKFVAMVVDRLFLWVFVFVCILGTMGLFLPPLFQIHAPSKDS
Neuronal acetylcholine receptor; alpha4/beta2, sequence (P09483 whole entry): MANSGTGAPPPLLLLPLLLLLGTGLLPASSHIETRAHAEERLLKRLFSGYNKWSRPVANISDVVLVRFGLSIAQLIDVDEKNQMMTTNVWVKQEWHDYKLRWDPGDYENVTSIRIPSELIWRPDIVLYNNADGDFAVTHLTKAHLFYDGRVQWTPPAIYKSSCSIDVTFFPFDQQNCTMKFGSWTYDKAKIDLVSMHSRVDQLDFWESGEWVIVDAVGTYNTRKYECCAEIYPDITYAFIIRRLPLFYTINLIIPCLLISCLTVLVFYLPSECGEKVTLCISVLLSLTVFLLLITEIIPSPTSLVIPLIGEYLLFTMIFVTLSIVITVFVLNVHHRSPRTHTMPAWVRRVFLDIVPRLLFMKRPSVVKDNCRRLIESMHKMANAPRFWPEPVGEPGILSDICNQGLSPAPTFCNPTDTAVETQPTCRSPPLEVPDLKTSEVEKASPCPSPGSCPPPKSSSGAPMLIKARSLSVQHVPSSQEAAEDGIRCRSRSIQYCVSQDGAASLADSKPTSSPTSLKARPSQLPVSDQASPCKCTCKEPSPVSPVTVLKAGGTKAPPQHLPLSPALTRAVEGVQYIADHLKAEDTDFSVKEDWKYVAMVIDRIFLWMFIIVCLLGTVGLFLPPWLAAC
Neuronal acetylcholine receptor; alpha4/beta2, sequence (P12390 whole entry): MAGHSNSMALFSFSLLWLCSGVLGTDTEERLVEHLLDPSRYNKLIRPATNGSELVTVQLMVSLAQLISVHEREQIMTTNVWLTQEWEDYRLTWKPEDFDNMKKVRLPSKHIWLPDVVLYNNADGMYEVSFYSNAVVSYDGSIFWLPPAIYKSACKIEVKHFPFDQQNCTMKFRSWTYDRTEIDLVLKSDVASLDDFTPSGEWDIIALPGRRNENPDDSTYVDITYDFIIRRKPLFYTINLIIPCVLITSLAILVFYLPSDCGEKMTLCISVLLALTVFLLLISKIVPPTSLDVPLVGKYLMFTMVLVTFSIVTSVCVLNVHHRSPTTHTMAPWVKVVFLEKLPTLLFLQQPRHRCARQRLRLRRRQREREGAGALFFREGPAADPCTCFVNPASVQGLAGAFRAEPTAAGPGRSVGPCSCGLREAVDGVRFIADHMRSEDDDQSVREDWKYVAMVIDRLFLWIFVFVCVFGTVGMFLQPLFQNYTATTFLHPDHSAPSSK

**Q.** Which IC50 [1] does the source give for `Brc1nc2n(c1Br)CC1(CN3CCC1CC3)O2` (racemic) here?
**A.** 62 nM

**Q.** And the EC50 [2]?
**A.** 32 nM

**Q.** Which IC50 [1] does the source give for `Brc1nc2n(c1Br)C[C@]1(CN3CCC1CC3)O2` here?
**A.** 9700 nM

**Q.** And the EC50 [2]?
**A.** 4030 nM

**Q.** For `Clc1ccc2nc3n(c2c1)C[C@@]1(CN2CCC1CC2)O3`, which Ratio IC50/EC50 [3] is on record?
**A.** 0.6

**Q.** What about the IC50 [1] of the same compound?
**A.** 9 nM

**Q.** And the EC50 [2]?
**A.** 14 nM

**Q.** With `COc1ccc(-c2cccc3c2nc2n3C[C@@]3(CN4CCC3CC4)O2)cc1` as the compound, how does the Ratio IC50/EC50 [3] read?
**A.** 400

**Q.** And the IC50 [1]?
**A.** 10400 nM

**Q.** And the EC50 [2]?
**A.** 26 nM

**Q.** Which Ratio IC50/EC50 [3] does the source give for `COc1ccc2c(c1)nc1n2C[C@@]2(CN3CCC2CC3)O1` here?
**A.** 1.6

**Q.** And the IC50 [1]?
**A.** 11 nM

**Q.** And the EC50 [2]?
**A.** 7 nM

**Q.** With `c1cnc2c(c1)C[C@@]1(CN3CCC1CC3)O2` [AZD0328] as the compound, how does the Ki [4] read?
**A.** 5 nM

**Q.** What does the source list for `c1ccc2c(c1)nc1n2C[C@@]2(CN3CCC2CC3)O1`?
**A.** Ratio IC50/EC50 [3]: 1.4; EC50 [5]: > 100000 nM; IC50 [1]: 15 nM; EC50 [2]: 11 nM; EC50 [6]: > 100000 nM; EC50 [7]: > 100000 nM

**Q.** With `c1ccc2c(c1)nc1n2C[C@]2(CN3CCC2CC3)O1` as the compound, how does the Ratio IC50/EC50 [3] read?
**A.** 2

**Q.** And the IC50 [1]?
**A.** 13000 nM

**Q.** What about the EC50 [2] of the same compound?
**A.** 6400 nM

**Q.** Which Ratio IC50/EC50 [3] does the source give for `Clc1ccc2c(c1)nc1n2C[C@@]2(CN3CCC2CC3)O1` here?
**A.** 0.2

**Q.** What about the IC50 [1] of the same compound?
**A.** 6 nM

**Q.** And the EC50 [2]?
**A.** 31 nM

**Q.** With `Cc1cccc2c1nc1n2C[C@@]2(CN3CCC2CC3)O1` as the compound, how does the Ratio IC50/EC50 [3] read?
**A.** 1

**Q.** And the IC50 [1]?
**A.** 7 nM

**Q.** And the EC50 [2]?
**A.** 7 nM

**Q.** For `Cc1ccc2nc3n(c2c1)C[C@@]1(CN2CCC1CC2)O3`, which Ratio IC50/EC50 [3] is on record?
**A.** 0.2

**Q.** And the IC50 [1]?
**A.** 6 nM

**Q.** What about the EC50 [2] of the same compound?
**A.** 33 nM

**Q.** Which Ratio IC50/EC50 [3] does the source give for `FC(F)(F)c1ccc2c(c1)nc1n2C[C@@]2(CN3CCC2CC3)O1` here?
**A.** 51

**Q.** What about the IC50 [1] of the same compound?
**A.** 660 nM

**Q.** And the EC50 [2]?
**A.** 13 nM

**Q.** For `Clc1cccc2nc3n(c12)C[C@@]1(CN2CCC1CC2)O3`, which Ratio IC50/EC50 [3] is on record?
**A.** 0.04

**Q.** What about the IC50 [1] of the same compound?
**A.** 11 nM

**Q.** And the EC50 [2]?
**A.** 268 nM

**Q.** What does the source list for `c1ccc(-c2cnc3c(c2)C[C@@]2(CN4CCC2CC4)O3)cc1`?
**A.** Ki [8]: 2 nM; Ki [9]: 2 nM

**Q.** Which Ratio IC50/EC50 [3] does the source give for `FC(F)(F)c1cccc2c1nc1n2C[C@@]2(CN3CCC2CC3)O1` here?
**A.** 0.5

**Q.** And the IC50 [1]?
**A.** 11 nM

**Q.** And the EC50 [2]?
**A.** 22 nM

**Q.** For `Clc1cccc2c1nc1n2C[C@@]2(CN3CCC2CC3)O1`, which Ratio IC50/EC50 [3] is on record?
**A.** 0.3

**Q.** And the IC50 [1]?
**A.** 4 nM

**Q.** What about the EC50 [2] of the same compound?
**A.** 16 nM

**Q.** What does the source list for `Brc1nc2n(c1Br)C[C@@]1(CN3CCC1CC3)O2`?
**A.** IC50 [1]: 43 nM; EC50 [2]: 19 nM

**Q.** Which results are given for `FC(F)(F)c1ccc2nc3n(c2c1)C[C@@]1(CN2CCC1CC2)O3`?
**A.** Ratio IC50/EC50 [3]: 0.25; IC50 [1]: 17 nM; EC50 [2]: 69 nM

**Q.** For `Cc1ccc2c(c1)nc1n2C[C@@]2(CN3CCC2CC3)O1`, which Ratio IC50/EC50 [3] is on record?
**A.** 2.6

**Q.** And the IC50 [1]?
**A.** 13 nM

**Q.** And the EC50 [2]?
**A.** 5 nM
